Source: article PMC11291776, “The development of ^177Lu-DOTA-CC-PSMA following a unified “Click Chemistry” protocol of synthesizing metal nuclide-conjugated radiopharmaceuticals” (EJNMMI Radiopharmacy and Chemistry, 2024)

Test: Pharmacokinetics (blood radioactivity after i.v. injection)
Type: in vivo
Conditions: healthy BALB/c male mice, i.v. 3.7 MBq, blood 2-240 min, DAS 2.0
Protocol: ^177Lu-DOTA-CC-PSMA (3.7 MBq in 100 µL) or ^177Lu-PSMA-617 (3.7 MBq in 100 µL) was administered intravenously via the tail into BALB/c male mice (n = 6), and a venous blood sample (5 µL) was collected from the tail end of each mouse at different time points after injection (2, 4, 6, 10, 15, 30, 60, 120, and 240 min). The radioactivity of the blood samples was measured by γ-counter, and the pharmacokinetics data were obtained using the DAS 2.0 software.

**Q.** With O=C([O-])CN1CCN(CC(=O)[O-])CCN(CC(=O)NCC2CCC(C(=O)N[C@@H](Cc3ccc4ccccc4c3)C(=O)NCCCC[C@H](NC(=O)N[C@@H](CCC(=O)O)C(=O)O)C(=O)O)CC2)CCN(CC(=O)[O-])CC1.[177Lu+3] (stereo partly shown) [^177Lu-PSMA-617] as the molecule, how does the blood clearance half-life read?
**A.** 17.18 min
